Assay [1] concerns a-SDM (DNA, aptamer) GAGGGCAACGAGTGTTTATAGA
The experiment in a line: equilibrium filtration (3 kD filter), HPLC. To be noted: 50 mM NaCl, 5 mM KCl, 5 mM MgCl2; 20 mM Tris/HCl pH 8 (BBSDM).

Assay [2] deals with a-SMZ-b (on DynaSA) (DNA, aptamer) TTAGCTTATGCGTTGGCCGGGATAAGGATCCAGCCGTTGTAGATTTGCGTTCTAACTCTC
Description: bead capture, HPLC. Conditions: room temperature, 1 h; around 2% captured, no elution, data not shown.

In assay [3] the test system is a-SMZ (DNA, aptamer) TTAGCTTATGCGTTGGCCGGGATAAGGATCCAGCCGTTGTAGATTTGCGTTCTAACTCTC
The experiment in a line: equilibrium filtration, HPLC. To be noted: 100 mM NaCl, 5 mM KCl, 2 mM MgCl2, 1 mM CaCl2; 20 mM Tris/HCl pH 7.6 (binding buffer listed for SMZ); highest aptamer 2.5 µM.

For assay [4], the system named is a-TC8 (amino, on DynaEpoxy) (DNA, aptamer) CGGTGGTG
Description: bead capture, HPLC. To be noted: room temperature, 1 h; capture significantly higher than nonsense aptamer.

The subject of assay [5] is a-TC40 (amino, on DynaEpoxy) (DNA, aptamer) GTTTGTGTATTACAGTTATGTTACCCTCATTTTTCTGAAC
Description: bead capture, HPLC. Conditions: room temperature, 1 h; capture significantly higher than nonsense aptamer.

Assay [6] has as its system a-TCmu (biotinylated, on DynaSA) (RNA, aptamer) GGGCCUAAAACAUACCAGAUCGCCACCCGCGCUUUAAUCUGGAGAGGUGAAGAAUACGACCACCUAGGCUC
The experiment in a line: bead capture, HPLC. To be noted: room temperature, 1 h; eluted with 2 M NaCl and 80 °C.

In assay [7] the test system is a-TC40 (DNA, aptamer) GTTTGTGTATTACAGTTATGTTACCCTCATTTTTCTGAAC
Description: equilibrium filtration, HPLC. Conditions: 100 mM NaCl, 5 mM KCl, 2 mM MgCl2, 1 mM CaCl2; 20 mM Tris/HCl pH 7.6 (binding buffer listed for TC); filter leakage 0.53.

In assay [8] the test system is a-TC76 (DNA, aptamer) CGTACGGAATTCGCTAGCCCCCCGGCAGGCCACGGCTTGGGTTGGTCCCACTGCGCGTGGATCCGAGCTCCACGTG
The experiment in a line: equilibrium filtration, HPLC. To be noted: 100 mM NaCl, 5 mM KCl, 2 mM MgCl2, 1 mM CaCl2; 20 mM Tris/HCl pH 7.6 (binding buffer listed for TC).

Assay [9] concerns a-TCmu (RNA, aptamer) GGGCCUAAAACAUACCAGAUCGCCACCCGCGCUUUAAUCUGGAGAGGUGAAGAAUACGACCACCUAGGCUC
Description: equilibrium filtration, HPLC. To be noted: Na+ 100 mM; Mg2+ 10 mM; K+ (20 mM potassium phosphate buffer); 20 mM potassium phosphate pH 7.5 (presumed).

Assay [10] shares this test system. Description: fluorescence titration (intrinsic tetracycline fluorescence). To be noted: 100 mM NaCl, 10 mM MgCl2; 20 mM potassium phosphate pH 7.5, 25 °C; fluorescence yield up about 12 times.

Some results are limits rather than exact numbers.

Regarding `COc1cc(NS(=O)(=O)c2ccc(N)cc2)nc(OC)n1`, the binding entry in assay [1] is “no”.

Turning to `Cc1cc(C)nc(NS(=O)(=O)c2ccc(N)cc2)n1`, the binding result in [2] was “weak”. The compound also showed a k in assay [3] of over 2.5 µM.

In the case of `CN(C)[C@@H]1C(=O)C(C(N)=O)=C(O)[C@@]2(O)C(=O)C3=C(O)c4c(O)cccc4[C@@](C)(O)[C@H]3C[C@@H]12`, the binding entry in assay [4], in [5] and in assay [6] was “yes” each time. Further, the k in [7] was 100 nM; in [8], 14 µM; in [9] it was 64 nM; in assay [10], ~ 60 nM.
